Source: ChEMBL document CHEMBL4819104, “Discovery of 2-amino-3-amido-5-aryl-pyridines as highly potent, orally bioavailable, and efficacious PERK kinase inhibitors” (Bioorg Med Chem Lett, 2021)
Values after ≈ are worked out from the molar mass of the structure shown. One block for each compound: values may come before it.

What was measured:
[1] = target: Angiopoietin-1 receptor (Homo sapiens) (UniProt Q02763); assay: Inhibition of wild-type human partial length TIE2 (N804 to T1112 residues) expressed in bacterial expression system assessed as residual activity at 10 uM by Kinomescan method relative to control
[2] = target: Mast/stem cell growth factor receptor Kit (Homo sapiens) (UniProt P10721); assay: Inhibition of wild-type human partial length KIT (I571 to D952 residues) expressed in bacterial expression system assessed as residual activity at 10 uM by Kinomescan method relative to control
[3] = target: Aurora kinase B (Homo sapiens) (UniProt Q96GD4); assay: Inhibition of wild-type human partial length AURKB (D25 to A303 residues) expressed in mammalian expression system assessed as residual activity at 10 uM by Kinomescan method relative to control
[4] = target: Macrophage colony-stimulating factor 1 receptor (Homo sapiens) (UniProt P07333); assay: Inhibition of wild-type human partial length CSF1R (I564 to S939 residues) expressed in bacterial expression system assessed as residual activity at 10 uM by Kinomescan method relative to control
[5] = system: Tyrosine-protein kinase ABL1 (Homo sapiens), P00519 [F317L]; assay: Inhibition of human non-phosphorylated ABL1 F317L mutant (S229 to K512 residues) expressed in mammalian expression system assessed as residual activity at 10 uM by Kinomescan method relative to control
[6] = target: T1, Mitogen-activated protein kinase 12 (Homo sapiens) (UniProt P53778); assay: Inhibition of wild-type human full length p38-gamma (M1 to L367 residues) expressed in mammalian expression system assessed as residual activity at 10 uM by Kinomescan method relative to control
T1 sequence (whole entry): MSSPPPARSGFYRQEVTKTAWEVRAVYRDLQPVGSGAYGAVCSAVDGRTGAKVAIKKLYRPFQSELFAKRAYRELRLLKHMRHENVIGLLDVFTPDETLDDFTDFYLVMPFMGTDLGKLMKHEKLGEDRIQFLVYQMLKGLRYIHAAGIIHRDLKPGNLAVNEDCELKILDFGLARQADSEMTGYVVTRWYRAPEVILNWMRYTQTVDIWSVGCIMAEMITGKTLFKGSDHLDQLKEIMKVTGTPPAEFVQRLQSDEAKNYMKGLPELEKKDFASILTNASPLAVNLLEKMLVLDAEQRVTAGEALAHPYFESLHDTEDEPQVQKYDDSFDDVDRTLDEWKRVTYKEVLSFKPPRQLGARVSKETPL

[7] = target: T2, Receptor-interacting serine/threonine-protein kinase 1 (Homo sapiens) (UniProt Q13546); assay: Inhibition of wild-type human partial length RIPK1 (M1 to K305 residues) expressed in bacterial expression system assessed as residual activity at 10 uM by Kinomescan method relative to control
T2 sequence (whole entry): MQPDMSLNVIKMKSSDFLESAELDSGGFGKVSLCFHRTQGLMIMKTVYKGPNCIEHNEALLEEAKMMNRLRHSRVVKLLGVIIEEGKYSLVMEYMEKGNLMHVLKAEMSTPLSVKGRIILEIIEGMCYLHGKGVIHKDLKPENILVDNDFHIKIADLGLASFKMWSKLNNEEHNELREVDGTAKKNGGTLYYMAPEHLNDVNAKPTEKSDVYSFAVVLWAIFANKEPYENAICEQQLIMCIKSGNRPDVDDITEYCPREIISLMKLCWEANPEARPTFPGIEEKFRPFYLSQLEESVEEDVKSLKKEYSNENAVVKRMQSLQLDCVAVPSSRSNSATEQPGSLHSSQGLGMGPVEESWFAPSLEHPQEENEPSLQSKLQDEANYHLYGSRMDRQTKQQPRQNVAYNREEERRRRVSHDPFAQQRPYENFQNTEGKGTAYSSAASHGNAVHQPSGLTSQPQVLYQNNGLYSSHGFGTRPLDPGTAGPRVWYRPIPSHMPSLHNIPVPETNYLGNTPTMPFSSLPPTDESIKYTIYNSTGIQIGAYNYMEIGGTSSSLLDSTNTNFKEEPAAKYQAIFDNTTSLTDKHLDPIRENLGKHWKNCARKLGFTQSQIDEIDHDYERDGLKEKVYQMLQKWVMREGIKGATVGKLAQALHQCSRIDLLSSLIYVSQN

[8] = target: BDNF/NT-3 growth factors receptor (Homo sapiens) (UniProt Q16620); assay: Inhibition of wild-type human partial length TRKB (Q547 to G838 residues) expressed in mammalian expression system assessed as residual activity at 10 uM by Kinomescan method relative to control
[9] = target: Proto-oncogene tyrosine-protein kinase Src (Homo sapiens) (UniProt P12931); assay: Inhibition of wild-type human partial length SRC (L240 to L536 residues) expressed in bacterial expression system assessed as residual activity at 10 uM by Kinomescan method relative to control
[10] = target: Platelet-derived growth factor receptor beta (Homo sapiens) (UniProt P09619); assay: Inhibition of wild-type human partial length PDGFRbeta (V582 to Y1009 residues) expressed in bacterial expression system assessed as residual activity at 10 uM by Kinomescan method relative to control
[11] = target: Epithelial discoidin domain-containing receptor 1 (Homo sapiens) (UniProt Q08345); assay: Inhibition of wild-type human partial length DDR1 (R565 to V876 residues) expressed in bacterial expression system assessed as residual activity at 10 uM by Kinomescan method relative to control
[12] = target: Tyrosine-protein kinase receptor UFO (Homo sapiens) (UniProt P30530); assay: Inhibition of wild-type human partial length AXL (R497 to Y821 residues) expressed in bacterial expression system assessed as residual activity at 10 uM by Kinomescan method relative to control
[13] = Plasma protein binding in human; assay type: ADME, cell-free; details: read-out: PPB (converted)
[14] = Aqueous solubility of the compound; assay type: physicochemical; details: buffer
[15] = Plasma protein binding in mouse; assay type: ADME, cell-free; details: read-out: PPB (converted)
[16] = Half life in dog hepatocytes; assay type: ADME, cell-based, Canis lupus familiaris, Hepatocyte
[17] = Plasma protein binding in dog; assay type: ADME, cell-free, Canis lupus familiaris; details: read-out: PPB (converted)
[18] = Half life in mouse hepatocytes; assay type: ADME, cell-based, Hepatocyte
[19] = target: T3, Eukaryotic translation initiation factor 2-alpha kinase 3 (Homo sapiens, UniProt Q9NZJ5); assay: Inhibition of human His-tagged PERK expressed in Escherichia coli assessed as eIF2alpha phosphorylation by TR-FRET assay
T3 sequence (Q9NZJ5 whole entry): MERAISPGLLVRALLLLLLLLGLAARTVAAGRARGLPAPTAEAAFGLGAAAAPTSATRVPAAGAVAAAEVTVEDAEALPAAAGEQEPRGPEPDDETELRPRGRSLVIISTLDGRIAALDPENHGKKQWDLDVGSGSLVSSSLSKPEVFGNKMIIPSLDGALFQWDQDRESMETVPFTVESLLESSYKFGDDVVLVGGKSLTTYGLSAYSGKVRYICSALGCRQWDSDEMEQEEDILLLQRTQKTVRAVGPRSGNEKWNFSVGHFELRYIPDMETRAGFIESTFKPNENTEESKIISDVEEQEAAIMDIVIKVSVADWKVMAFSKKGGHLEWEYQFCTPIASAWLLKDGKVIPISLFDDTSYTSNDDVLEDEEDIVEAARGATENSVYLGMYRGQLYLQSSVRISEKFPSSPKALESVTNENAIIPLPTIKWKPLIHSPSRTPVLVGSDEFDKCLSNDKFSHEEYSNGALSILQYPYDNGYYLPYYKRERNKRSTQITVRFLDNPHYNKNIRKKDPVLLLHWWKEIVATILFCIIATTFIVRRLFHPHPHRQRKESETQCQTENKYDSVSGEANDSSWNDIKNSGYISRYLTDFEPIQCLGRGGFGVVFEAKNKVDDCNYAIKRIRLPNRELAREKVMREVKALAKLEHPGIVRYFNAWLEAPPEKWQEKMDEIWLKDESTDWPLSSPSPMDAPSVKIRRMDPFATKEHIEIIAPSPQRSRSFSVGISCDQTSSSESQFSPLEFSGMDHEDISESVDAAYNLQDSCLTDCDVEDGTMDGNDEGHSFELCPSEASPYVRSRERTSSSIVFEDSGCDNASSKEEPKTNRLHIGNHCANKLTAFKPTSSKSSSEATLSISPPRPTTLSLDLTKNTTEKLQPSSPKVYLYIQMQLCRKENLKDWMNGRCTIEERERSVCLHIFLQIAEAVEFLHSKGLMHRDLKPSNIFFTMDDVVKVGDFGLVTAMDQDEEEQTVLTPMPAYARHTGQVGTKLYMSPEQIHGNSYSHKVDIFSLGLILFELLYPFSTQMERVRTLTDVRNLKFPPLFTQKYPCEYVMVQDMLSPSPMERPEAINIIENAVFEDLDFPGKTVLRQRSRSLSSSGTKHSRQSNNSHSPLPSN

[20] = Plasma protein binding in rat; assay type: ADME, cell-free; details: read-out: PPB (converted)
[21] = Half life in human hepatocytes; assay type: ADME, cell-based, Hepatocyte
[22] = Half life in mouse at 10 mg/kg, po; assay type: ADME, organism-based; details: in vivo
[23] = Efflux ratio of apparent permeability in human Caco-2 cells; assay type: ADME, cell-based
[24] = Cmax in mouse at 10 mg/kg, po; assay type: ADME, organism-based; set-up: route oral, dose 10 mg/kg; details: in vivo
[25] = AUC (0 to last) in mouse at 10 mg/kg, po; assay type: ADME, organism-based; set-up: time 0 - last, route oral, dose 10 mg/kg; details: in vivo
[26] = Half life in rat hepatocytes; assay type: ADME, cell-based, Hepatocyte
[27] = Oral bioavailability in mouse at 10 mg/kg; assay type: ADME, organism-based; details: in vivo
[28] = Apparent permeability of the compound across apical to basolateral side in human Caco-2 cells; assay type: ADME, cell-based; details: read-out: permeability

Sequence of Mast/stem cell growth factor receptor Kit (Homo sapiens) (P10721 whole entry, the tested form may be a part): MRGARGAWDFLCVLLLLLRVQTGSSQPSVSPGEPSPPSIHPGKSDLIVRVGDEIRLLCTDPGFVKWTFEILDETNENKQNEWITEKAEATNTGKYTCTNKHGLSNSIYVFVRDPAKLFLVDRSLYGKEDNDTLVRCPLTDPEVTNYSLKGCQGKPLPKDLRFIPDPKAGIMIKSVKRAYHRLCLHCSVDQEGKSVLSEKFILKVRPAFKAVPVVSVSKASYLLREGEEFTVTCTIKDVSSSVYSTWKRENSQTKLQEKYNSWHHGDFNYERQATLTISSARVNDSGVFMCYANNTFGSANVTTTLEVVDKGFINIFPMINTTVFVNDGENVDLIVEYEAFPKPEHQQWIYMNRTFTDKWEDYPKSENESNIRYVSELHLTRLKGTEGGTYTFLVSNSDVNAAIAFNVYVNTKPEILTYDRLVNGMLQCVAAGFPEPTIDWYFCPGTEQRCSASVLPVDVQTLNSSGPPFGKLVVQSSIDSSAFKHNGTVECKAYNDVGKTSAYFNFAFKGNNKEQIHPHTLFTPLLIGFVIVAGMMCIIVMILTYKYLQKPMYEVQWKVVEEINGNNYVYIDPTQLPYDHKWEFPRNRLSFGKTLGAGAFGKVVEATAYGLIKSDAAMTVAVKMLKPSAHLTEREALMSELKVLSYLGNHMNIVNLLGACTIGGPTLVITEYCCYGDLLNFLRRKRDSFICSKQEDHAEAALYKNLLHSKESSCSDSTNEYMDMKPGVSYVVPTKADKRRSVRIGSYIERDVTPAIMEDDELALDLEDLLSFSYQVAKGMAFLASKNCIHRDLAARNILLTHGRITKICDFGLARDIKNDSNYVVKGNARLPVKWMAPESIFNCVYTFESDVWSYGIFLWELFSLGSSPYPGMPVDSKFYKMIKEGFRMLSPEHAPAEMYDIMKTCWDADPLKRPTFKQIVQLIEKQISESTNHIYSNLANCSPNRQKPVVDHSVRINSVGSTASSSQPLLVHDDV
Sequence of Platelet-derived growth factor receptor beta (Homo sapiens) (P09619 whole entry, the tested form may be a part): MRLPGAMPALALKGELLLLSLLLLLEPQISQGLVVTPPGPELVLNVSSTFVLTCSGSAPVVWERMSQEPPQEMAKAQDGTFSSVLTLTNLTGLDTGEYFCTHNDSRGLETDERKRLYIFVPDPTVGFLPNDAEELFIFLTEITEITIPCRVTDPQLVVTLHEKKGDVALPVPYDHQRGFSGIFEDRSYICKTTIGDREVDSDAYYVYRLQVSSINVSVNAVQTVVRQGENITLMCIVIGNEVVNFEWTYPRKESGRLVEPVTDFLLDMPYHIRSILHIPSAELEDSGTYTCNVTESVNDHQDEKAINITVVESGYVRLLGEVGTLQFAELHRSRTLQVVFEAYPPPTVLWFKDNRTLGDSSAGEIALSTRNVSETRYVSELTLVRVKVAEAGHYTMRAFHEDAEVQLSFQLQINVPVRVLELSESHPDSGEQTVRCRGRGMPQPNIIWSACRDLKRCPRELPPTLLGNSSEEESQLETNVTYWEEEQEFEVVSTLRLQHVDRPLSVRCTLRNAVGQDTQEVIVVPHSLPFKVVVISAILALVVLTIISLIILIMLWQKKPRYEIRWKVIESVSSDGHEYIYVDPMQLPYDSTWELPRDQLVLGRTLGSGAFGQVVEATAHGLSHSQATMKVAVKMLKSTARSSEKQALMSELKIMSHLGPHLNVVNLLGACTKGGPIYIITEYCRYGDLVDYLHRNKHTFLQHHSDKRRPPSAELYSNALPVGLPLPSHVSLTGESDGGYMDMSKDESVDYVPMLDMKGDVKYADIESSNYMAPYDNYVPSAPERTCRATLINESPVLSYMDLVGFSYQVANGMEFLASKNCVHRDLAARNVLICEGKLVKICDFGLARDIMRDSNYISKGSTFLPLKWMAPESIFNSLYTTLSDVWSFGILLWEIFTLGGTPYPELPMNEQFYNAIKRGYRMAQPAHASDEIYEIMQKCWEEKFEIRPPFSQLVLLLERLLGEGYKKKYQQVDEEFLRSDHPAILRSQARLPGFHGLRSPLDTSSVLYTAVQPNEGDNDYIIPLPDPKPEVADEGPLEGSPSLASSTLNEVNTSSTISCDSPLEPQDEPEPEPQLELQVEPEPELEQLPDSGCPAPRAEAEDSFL
Sequence of Macrophage colony-stimulating factor 1 receptor (Homo sapiens) (P07333 whole entry, the tested form may be a part): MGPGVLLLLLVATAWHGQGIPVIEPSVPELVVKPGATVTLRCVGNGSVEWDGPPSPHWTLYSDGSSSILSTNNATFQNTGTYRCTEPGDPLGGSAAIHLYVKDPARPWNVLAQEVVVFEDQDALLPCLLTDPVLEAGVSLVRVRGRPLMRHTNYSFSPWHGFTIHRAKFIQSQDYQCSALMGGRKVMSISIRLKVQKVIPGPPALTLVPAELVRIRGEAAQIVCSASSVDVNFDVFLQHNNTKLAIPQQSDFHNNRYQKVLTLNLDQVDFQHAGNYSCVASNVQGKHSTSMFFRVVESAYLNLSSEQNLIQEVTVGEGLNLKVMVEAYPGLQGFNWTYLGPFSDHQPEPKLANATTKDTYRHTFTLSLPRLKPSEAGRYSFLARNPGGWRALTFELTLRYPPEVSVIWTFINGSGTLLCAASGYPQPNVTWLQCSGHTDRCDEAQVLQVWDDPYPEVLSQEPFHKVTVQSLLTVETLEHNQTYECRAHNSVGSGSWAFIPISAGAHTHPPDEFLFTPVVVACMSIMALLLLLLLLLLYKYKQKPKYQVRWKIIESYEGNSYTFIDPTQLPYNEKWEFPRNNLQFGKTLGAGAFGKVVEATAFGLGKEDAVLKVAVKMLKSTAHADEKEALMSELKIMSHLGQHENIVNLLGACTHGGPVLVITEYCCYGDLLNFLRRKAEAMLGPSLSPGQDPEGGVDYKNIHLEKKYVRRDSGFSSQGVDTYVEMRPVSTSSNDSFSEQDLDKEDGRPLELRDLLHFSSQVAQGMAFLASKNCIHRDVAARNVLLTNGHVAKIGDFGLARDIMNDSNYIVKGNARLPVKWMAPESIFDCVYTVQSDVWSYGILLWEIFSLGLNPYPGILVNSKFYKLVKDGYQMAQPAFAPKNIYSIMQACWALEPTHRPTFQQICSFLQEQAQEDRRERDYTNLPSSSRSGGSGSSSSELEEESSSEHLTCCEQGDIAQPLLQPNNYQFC
Sequence of BDNF/NT-3 growth factors receptor (Homo sapiens) (Q16620 32-822 limits assumed): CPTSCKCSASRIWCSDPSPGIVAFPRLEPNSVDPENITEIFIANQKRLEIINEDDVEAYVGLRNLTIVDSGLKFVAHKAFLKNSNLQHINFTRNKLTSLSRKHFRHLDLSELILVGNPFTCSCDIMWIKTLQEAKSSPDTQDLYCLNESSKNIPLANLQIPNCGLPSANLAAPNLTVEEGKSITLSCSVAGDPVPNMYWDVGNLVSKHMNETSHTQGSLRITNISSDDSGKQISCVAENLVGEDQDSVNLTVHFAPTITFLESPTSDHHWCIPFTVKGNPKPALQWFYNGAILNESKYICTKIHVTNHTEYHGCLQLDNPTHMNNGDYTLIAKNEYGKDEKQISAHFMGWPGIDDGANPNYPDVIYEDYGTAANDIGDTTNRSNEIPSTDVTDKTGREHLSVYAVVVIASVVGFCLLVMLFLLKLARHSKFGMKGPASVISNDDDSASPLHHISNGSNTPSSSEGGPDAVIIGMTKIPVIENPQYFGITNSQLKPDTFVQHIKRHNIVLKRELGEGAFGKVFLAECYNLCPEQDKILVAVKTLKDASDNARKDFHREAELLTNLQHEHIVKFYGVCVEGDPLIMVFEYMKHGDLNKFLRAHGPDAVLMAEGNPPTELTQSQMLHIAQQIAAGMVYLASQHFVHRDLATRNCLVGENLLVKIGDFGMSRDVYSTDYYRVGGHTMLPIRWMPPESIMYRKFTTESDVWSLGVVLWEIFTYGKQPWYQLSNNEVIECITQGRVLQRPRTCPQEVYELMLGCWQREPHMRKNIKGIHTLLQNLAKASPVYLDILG
Sequence of Aurora kinase B (Homo sapiens) (Q96GD4 whole entry, the tested form may be a part): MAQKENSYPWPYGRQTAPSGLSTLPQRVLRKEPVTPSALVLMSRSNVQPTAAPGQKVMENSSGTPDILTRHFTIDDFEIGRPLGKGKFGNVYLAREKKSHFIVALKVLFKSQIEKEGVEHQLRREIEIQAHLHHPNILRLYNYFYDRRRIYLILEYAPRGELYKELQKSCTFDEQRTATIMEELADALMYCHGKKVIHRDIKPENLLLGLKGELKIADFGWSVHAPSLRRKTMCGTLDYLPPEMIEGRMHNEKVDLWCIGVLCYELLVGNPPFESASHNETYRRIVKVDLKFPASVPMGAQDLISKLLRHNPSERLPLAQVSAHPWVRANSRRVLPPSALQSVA
Sequence of Tyrosine-protein kinase receptor UFO (Homo sapiens) (P30530 whole entry, the tested form may be a part): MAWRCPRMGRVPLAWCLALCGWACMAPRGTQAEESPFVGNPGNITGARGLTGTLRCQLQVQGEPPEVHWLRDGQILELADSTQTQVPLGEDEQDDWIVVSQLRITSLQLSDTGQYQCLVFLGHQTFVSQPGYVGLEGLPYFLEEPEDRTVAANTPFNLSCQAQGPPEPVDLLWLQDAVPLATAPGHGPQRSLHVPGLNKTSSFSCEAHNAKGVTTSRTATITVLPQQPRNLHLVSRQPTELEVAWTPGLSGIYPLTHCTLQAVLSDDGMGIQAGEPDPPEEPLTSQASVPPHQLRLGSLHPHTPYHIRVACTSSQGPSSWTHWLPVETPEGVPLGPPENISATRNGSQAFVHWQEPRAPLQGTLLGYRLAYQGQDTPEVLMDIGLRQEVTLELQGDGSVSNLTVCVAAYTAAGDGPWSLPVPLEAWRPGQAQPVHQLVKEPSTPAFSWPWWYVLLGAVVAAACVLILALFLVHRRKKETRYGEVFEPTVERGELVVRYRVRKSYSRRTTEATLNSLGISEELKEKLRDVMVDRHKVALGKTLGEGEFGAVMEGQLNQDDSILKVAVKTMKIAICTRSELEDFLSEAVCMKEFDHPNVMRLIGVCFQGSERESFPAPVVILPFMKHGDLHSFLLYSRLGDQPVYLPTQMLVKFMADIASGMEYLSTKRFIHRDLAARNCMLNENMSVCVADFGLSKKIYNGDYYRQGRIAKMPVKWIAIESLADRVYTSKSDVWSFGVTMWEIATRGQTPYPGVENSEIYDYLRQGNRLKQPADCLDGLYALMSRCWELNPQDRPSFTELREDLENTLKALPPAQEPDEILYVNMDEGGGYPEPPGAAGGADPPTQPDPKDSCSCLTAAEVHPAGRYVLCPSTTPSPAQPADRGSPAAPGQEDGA

Activity [1]: 5.3%
Activity [2]: 0.1%
Activity [3]: 5.3%
Activity [4]: 1.8%
Activity [5]: 0%
Activity [6]: 3.7%
Activity [7]: 0%
Activity [8]: 6.5%
Activity [9]: 7%
Activity [10]: 0.2%
Activity [11]: 1.3%
Activity [12]: 8.2%
SMILES: Cc1cccc(CC(=O)N2CCc3c2ccc(-c2cn(C)c4ncnc(N)c24)c3F)n1

fraction unbound [13]: 0.007
solubility [14]: 31 µM (≈ 14.1 µg/mL)
fraction unbound [15]: 0.017
half-life [16]: 3.12 h
fraction unbound [17]: 0.014
half-life [18]: 1.15 h
IC50 [19]: 4 nM
fraction unbound [20]: 0.024
half-life [21]: 4.08 h
half-life [22]: 1.2 h
efflux ratio [23]: 2
Cmax [24]: 1600 ng/mL
AUC(0-t) [25]: 2000 ng·h/mL
half-life [26]: 9.3 min
bioavailability [27]: 49%
Papp A→B [28]: 15 ×10⁻⁶ cm/s
SMILES: Cc1cc(NC(=O)[C@H](O)c2cc(F)cc(F)c2)ccc1-c1cnc(N)c(C(=O)NC(C)C)c1
